Results published in patent US6413517B1, “Identification of broadly reactive DR restricted epitopes” (Epimmune, Inc., priority 1997, dated 2002).
Like-named read-outs stand apart in the source and are kept apart here. No end group written: not given here.

Legend:
[1] = tested on: panel of purified HLA DR molecules; type: binding, human
DRB1*0101 (DR1) = target: T1, DRB1*0101 (DR1) (Homo sapiens, UniProt P01903+P01911, A100R/D57E/F55L/F60I/F76Y/I96L/L162R/M171V/P40L/Q125E/R42F/V115G/Y59C); assay: biochemical; type: binding
T1 construct: Epstein-Barr virus (EBV) transformed homozygous cell lines were used as sources; endogenous in cells; host or cells: LG2 (EBV-transformed homozygous B cell line)

DRB1*0401 (DR4w4) = target: T2, DRB1*0401 (DR4w4) (Homo sapiens, UniProt P01903+P01911, A100K/A169T/F76Y/I96L/K127E/L162R/M171V/N62H/P40V/Q125Y/R42H/S133A/S149N/S66Y/V115G/V209L/W38E); assay: biochemical; type: binding
T2 construct: Epstein-Barr virus (EBV) transformed homozygous cell lines were used as sources; endogenous in cells; host or cells: PREISS (EBV-transformed homozygous B cell line)

DRB1*0701 (DR7) = target: T3, DRB1*0701 (DR7) (Homo sapiens, UniProt P01903+P01911, A100R/A102G/A103Q/D57E/D86V/E43K/F76Y/K127E/L162R/M171V/P40G/Q125H/Q99D/R33Q/R42Y/R54Q/S133A/S66F/T210M/V115G/Y107V/Y59L/Y89S); assay: biochemical; type: binding
T3 construct: Epstein-Barr virus (EBV) transformed homozygous cell lines were used as sources; endogenous in cells; host or cells: PITOUT (EBV-transformed homozygous B cell line)

DRB1*1501 (DR2w2b) = target: T4, DRB1*1501 (DR2w2b) (Homo sapiens, UniProt P01903+P01911); assay: biochemical; type: binding
T4 construct: expressed in transfected cells; host or cells: transfected fibroblasts L466.1

DRB5*0101 (DR2w2a) = target: T5, DRB5*0101 (DR2w2a) (Homo sapiens, UniProt P01903+Q30154); assay: biochemical; type: binding
T5 construct: Epstein-Barr virus (EBV) transformed homozygous cell lines were used as sources; endogenous in cells; host or cells: GM3107 (EBV-transformed homozygous B cell line)

DRB1*0405 (DR4w15) = target: T6, DRB1*0405 (DR4w15) (Homo sapiens, UniProt P01903+P01911, A100R/A169T/D86S/F76Y/I96L/K127E/L162R/M171V/N62H/P40V/Q125Y/R42H/S133A/S149N/S66Y/V115G/V209L/W38E); assay: biochemical; type: binding
T6 construct: Epstein-Barr virus (EBV) transformed homozygous cell lines were used as sources; endogenous in cells; host or cells: KT3 (EBV-transformed homozygous B cell line)

DRB1*1101 (DR5w11) = target: T7, DRB1*1101 (DR5w11) (Homo sapiens, UniProt P01903+P01911, A100R/A169T/A87E/I96F/K41T/L162R/M171V/P40S/Q125H/Q178H/Q39Y/Q99D/R42S/S66Y/T262R/V115G/W38E); assay: biochemical; type: binding
T7 construct: Epstein-Barr virus (EBV) transformed homozygous cell lines were used as sources; endogenous in cells; host or cells: SWEIG (EBV-transformed homozygous B cell line)
T7 sequence (P01903 26-254, other chains not shown): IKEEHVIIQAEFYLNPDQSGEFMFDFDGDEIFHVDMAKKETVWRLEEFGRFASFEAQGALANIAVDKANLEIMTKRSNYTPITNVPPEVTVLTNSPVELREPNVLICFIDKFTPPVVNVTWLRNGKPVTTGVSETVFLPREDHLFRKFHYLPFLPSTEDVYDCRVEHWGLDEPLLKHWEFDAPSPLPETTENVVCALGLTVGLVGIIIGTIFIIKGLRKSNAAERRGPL

DRB1*1302 (DR6w19) = target: T8, DRB1*1302 (DR6w19) (Homo sapiens, UniProt P01903+P01911, A100E/A169T/K41T/L162R/M171V/P40S/Q125H/Q178H/Q39Y/Q99D/R42S/S66N/T262R/V115G/W38E/Y61H); assay: biochemical; type: binding
T8 construct: Epstein-Barr virus (EBV) transformed homozygous cell lines were used as sources; the source of Class II molecules the EBV transformed homozygous cell line H0301; endogenous in cells; host or cells: H0301 (EBV-transformed homozygous B cell line)

DRB1*0802 (DR8w2) = target: T9, DRB1*0802 (DR8w2) (Homo sapiens, UniProt P01903+P01911, A100R/A103L/A169T/F76Y/H45Y/I96F/K41T/L162R/M171V/P40S/Q125H/Q178H/Q39Y/Q99D/R218S/R42G/S66Y/V115G/W38E); assay: biochemical; type: binding
T9 construct: Epstein-Barr virus (EBV) transformed homozygous cell lines were used as sources; endogenous in cells; host or cells: OLL (EBV-transformed homozygous B cell line)

DRB1*0901 (DR9) = target: T10, DRB1*0901 (DR9) (Homo sapiens, UniProt P01903+P01911, A100R/A103E/D57H/D86V/F55Y/F60I/F76Y/I96F/K127E/L162R/M171V/P40D/Q125H/Q99R/R33Q/R42F/S133A/S66N/T210M/V115G/W38K/Y107V/Y59G/Y89S); assay: biochemical; type: binding
T10 construct: Epstein-Barr virus (EBV) transformed homozygous cell lines were used as sources; endogenous in cells

DRB1*1201 (DR5w12) = target: T11, DRB1*1201 (DR5w12) (Homo sapiens, UniProt P01903+P01911, A100R/A169T/D57E/D86V/F55L/H45Y/K41T/L162R/M171V/P40S/Q125H/Q178H/Q39Y/Q99D/R42G/S66L/T262R/V114A/V67L/W38E/Y59H/Y61H/Y89S); assay: biochemical; type: binding
T11 construct: Epstein-Barr virus (EBV) transformed homozygous cell lines were used as sources; endogenous in cells; host or cells: Herluf (EBV-transformed homozygous B cell line)

DRB1*0301 (DR3w17) [2] = target: T12, DRB1*0301 (DR3w17) (Homo sapiens, UniProt P01903+P01911, A100K/A102G/A103R/A169T/F55Y/I96L/K41T/L162R/M171V/P40S/Q125H/Q178H/Q39Y/R42S/S66N/T106N/T262R/W38E/Y61H); details: read-out: Binding Capacity (IC 50% nM) Other Alleles DR3
DRB1*0301 (DR3w17) [3] = target: T12, DRB1*0301 (DR3w17); assay: biochemical; details: Binding Capacity (IC50% nM) DR3
[4] = Binding Capacity (IC 50% nM) DR1,4,7 DRB1
[5] = Binding Capacity (IC50% nM) DR7
[6] = Binding Capacity (IC 50% nM) Other Alleles DR2w2a
[7] = Binding Capacity (IC50% nM) DR5w11
[8] = read-out: Binding Capacity (IC 50% nM) Other Alleles DR5w11
[9] = read-out: Binding Capacity (IC 50% nM) Other Alleles DR6w19
[10] = Binding Capacity (IC50% nM) DR8w2
[11] = read-out: Binding Capacity (IC 50% nM) Other Alleles DR8w2
[12] = read-out: Binding Capacity (IC 50% nM) Other Alleles DR9
[13] = read-out: Binding Capacity (IC 50% nM) Other Alleles DR5w12
[14] = Binding Capacity (IC 50% nM) DR1,4,7 DR4w4
[15] = read-out: Binding Capacity (IC 50% nM) DR1,4,7 DR7
[16] = Binding Capacity (IC50% nM) DR2w2b
[17] = read-out: Binding Capacity (IC 50% nM) Other Alleles DR2w2b
[18] = Binding Capacity (IC50% nM) DR4w15
[19] = read-out: Binding Capacity (IC 50% nM) Other Alleles DR4w15
[20] = Binding Capacity (IC50% nM) DR6w19
[21] = Binding Capacity (IC50% nM) DR9
[22] = Binding Capacity (IC50% nM) DR5w12

Compound	IC50 (DRB1*0101 (DR1); [4])	IC50 (DRB1*0701 (DR7); [5])	IC50 (DRB5*0101 (DR2w2a); [6])	IC50 (DRB1*1101 (DR5w11); [7])	IC50 (DRB1*1101 (DR5w11); [8])	IC50 (DRB1*1302 (DR6w19); [9])	IC50 (DRB1*0802 (DR8w2); [10])	IC50 (DRB1*0802 (DR8w2); [11])	IC50 (DRB1*0901 (DR9); [12])	IC50 (DRB1*1201 (DR5w12); [13])	IC50 (DRB1*0301 (DR3w17) [2])	IC50 (DRB1*0301 (DR3w17) [3])	IC50 (DRB1*0401 (DR4w4); [14])	IC50 (DRB1*0701 (DR7); [15])	IC50 (DRB1*1501 (DR2w2b); [16])	IC50 (DRB1*1501 (DR2w2b); [17])	IC50 (DRB1*0405 (DR4w15); [18])	IC50 (DRB1*0405 (DR4w15); [19])	IC50 (DRB1*1302 (DR6w19); [20])	IC50 (DRB1*0901 (DR9); [21])	also measured
CC[C@H](C)[C@H](NC(=O)[C@H](CO)NC(=O)[C@@H](N)CO)C(=O)N[C@H](C(=O)N[C@@H](Cc1ccccc1)C(=O)NCC(=O)N[C@@H](C)C(=O)N[C@@H](Cc1ccccc1)C(=O)N1CCC[C@H]1C(=O)N[C@@H](CO)C(=O)N[C@@H](CC(C)C)C(=O)N[C@@H](Cc1c[nH]cn1)C(=O)N[C@@H](CO)C(=O)NCC(=O)N[C@@H](CS)C(=O)N[C@@H](CS)C(=O)O)[C@@H](C)CC [Peptide 1136.38]	–	–	–	–	–	–	–	–	–	–	–	–	–	–	–	–	–	–	–	–	Total Alleles Bound [1]: 6
CC[C@H](C)[C@H](NC(=O)[C@H](CC(C)C)NC(=O)[C@H](Cc1ccccc1)NC(=O)[C@H](CS)NC(=O)[C@@H](NC(=O)[C@H](C)NC(=O)[C@@H](N)Cc1ccccc1)[C@@H](C)O)C(=O)N1CCC[C@H]1C(=O)N[C@@H](CC(C)C)C(=O)N[C@H](C(=O)N[C@@H](CO)C(=O)N[C@@H](CCC(N)=O)C(=O)N[C@@H](Cc1ccccc1)C(=O)N[C@@H](Cc1ccccc1)C(=O)N[C@@H](CC(C)C)C(=O)N1CCC[C@H]1C(=O)O)[C@@H](C)O [Peptide 1136.14]	< 1000 nM	100 nM	< 1000 nM	> 10000 nM	> 1000 nM	> 1000 nM	> 10000 nM	> 1000 nM	> 1000 nM	> 1000 nM	> 1000 nM	> 10000 nM	–	–	–	–	–	–	–	–	IC50 (DRB1*0401 (DR4w4); read-out: Binding Capacity (IC 50% nM) DR1,4,7 DR4w4): > 1000 nM; IC50 (DRB1*0701 (DR7); Binding Capacity (IC 50% nM) DR1,4,7 DR7): < 1000 nM; IC50 (DRB1*1501 (DR2w2b); Binding Capacity (IC 50% nM) Other Alleles DR2w2b): < 1000 nM; IC50 (DRB1*0405 (DR4w15); Binding Capacity (IC 50% nM) Other Alleles DR4w15): < 1000 nM
RVYQEPQVSPPQRAET [Peptide 1136.59.01a]	< 1000 nM	> 10000 nM	< 1000 nM	> 10000 nM	> 1000 nM	> 1000 nM	> 10000 nM	> 1000 nM	> 1000 nM	> 1000 nM	> 1000 nM	> 10000 nM	< 1000 nM	> 1000 nM	> 10000 nM	> 1000 nM	3140 nM	> 1000 nM	> 10000 nM	> 10000 nM	IC50 (DRB1*0101 (DR1); Binding Capacity (IC50% nM) DR1): 130 nM; IC50 (DRB1*1201 (DR5w12); [22]): > 10000 nM
LWWSTMYLTHHYFVDL [Peptide 1136.46]	< 1000 nM	5810 nM	–	> 10000 nM	> 1000 nM	> 1000 nM	> 10000 nM	> 1000 nM	> 1000 nM	> 1000 nM	> 1000 nM	> 10000 nM	< 1000 nM	> 1000 nM	> 10000 nM	> 1000 nM	> 10000 nM	> 1000 nM	> 10000 nM	> 10000 nM	IC50 (DRB1*0401 (DR4w4); Binding Capacity (IC50% nM) DR4w4): 985 nM; IC50 (DRB5*0101 (DR2w2a); Binding Capacity (IC50% nM) DR2w2a): > 10000 nM; IC50 (DRB5*0101 (DR2w2a); read-out: Binding Capacity (IC 50% nM) Other Alleles DR2w2a): > 1000 nM; IC50 (DRB1*1201 (DR5w12); [22]): > 10000 nM
